Some test systems named below: SF-295 CNS; UACC-257 melanoma; MDA-MB-231 breast; HOP-92 NSCLC; HS 578T breast; NCI-H226 lung; EKVX NSCLC; OVCAR-5 ovarian; RPMI-8226 leukemia; SN12C renal.
What all share (assay): NCI-60 cell line screen, 48 h

Molecules are shown by their SMILES. “And” between values parts separate entries of the source, which are not always exact repeats. Equal entries are not always repeated.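 Assay format: 96-well plates, 48-hour exposure. The concentration for 50% growth inhibition is given as GI50. TGI: concentration producing complete growth inhibition.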

For the compound `Cc1cc(O)c2c(c1O)C(=O)c1cccc(O)c1C2=O`, the TGI with SF-295 CNS, in the assay on UACC-257 melanoma, with MDA-MB-231 breast, in the assay with HOP-92 NSCLC, in the assay with HS 578T breast and in the assay with NCI-H226 lung was above 100 µM each time. For the same compound, the TGI with EKVX NSCLC, in the assay on OVCAR-5 ovarian, with RPMI-8226 leukemia and in the assay with SN12C renal was above 100 µM in each case.

Take `O=[N+]([O-])c1ccc2nc(Cl)n[n+]([O-])c2c1`: the TGI in the assay on SF-295 CNS is 47.9 µM; with UACC-257 melanoma, 29.3 µM; in the assay with MDA-MB-231 breast, 28.3 µM; with HOP-92 NSCLC, 19.6 µM; with HS 578T breast, above 100 µM; with NCI-H226 lung, 42.2 µM. Further, the TGI with EKVX NSCLC was found to be 39 µM; in the assay on OVCAR-5 ovarian, 31.3 µM; with RPMI-8226 leukemia it was 9.1 µM; in the assay with SN12C renal, 37.4 µM.

For the compound `CC(=O)N1N=C(c2ccc3ccccc3c2O)CC1c1cccs1` (centres undefined), the TGI in the assay with SF-295 CNS, in the assay on UACC-257 melanoma, with MDA-MB-231 breast, with HOP-92 NSCLC, with HS 578T breast and in the assay with NCI-H226 lung was above 100 µM each time. Besides, the TGI in the assay on OVCAR-5 ovarian was above 100 µM; in the assay with RPMI-8226 leukemia it was 47.1 µM; in the assay on SN12C renal, above 100 µM.

Turning to `C(/C=C/c1ccccc1)=Nc1ccc2c(c1)Cc1ccccc1-2`, the TGI in the assay with SF-295 CNS, in the assay on MDA-MB-231 breast, in the assay on HOP-92 NSCLC, with HS 578T breast, in the assay on NCI-H226 lung and with EKVX NSCLC was above 100 µM in each case. In addition, the TGI in the assay on OVCAR-5 ovarian and with SN12C renal was above 100 µM throughout.

As to `C=C(C)C(=O)O[C@H]1CC2=C[C@@H](C[C@@]3(C)O[C@@H]3[C@H]3OC(=O)C(=C)[C@@H]31)OC2=O`, the TGI with SF-295 CNS was found to be 11.9 µM; in the assay on UACC-257 melanoma, 5.63 µM; with HOP-92 NSCLC, 2.78 µM; in the assay on NCI-H226 lung, 30.7 µM; in the assay with EKVX NSCLC, 4.82 µM; in the assay with OVCAR-5 ovarian, 12.2 µM. The values for the TGI with RPMI-8226 leukemia and in the assay on SN12C renal were 26.3 µM and 8.02 µM, respectively. In addition, in the assay on RPMI-8226 leukemia, the GI50 was 0.915 µM.

Regarding `CCOC1=NC(C(F)(F)F)(C(F)(F)F)N=C(N2CCOCC2)O1`, the TGI in the assay on SF-295 CNS, in the assay with UACC-257 melanoma, in the assay on MDA-MB-231 breast, in the assay with HOP-92 NSCLC, with HS 578T breast and in the assay on EKVX NSCLC was above 100 µM each time. Besides, the TGI in the assay on OVCAR-5 ovarian, in the assay with RPMI-8226 leukemia and with SN12C renal was above 100 µM throughout.

Regarding `COc1cc(C2S/C(=C/c3ccccc3)C(=O)N2c2ccc(NC(C)=O)cc2)cc(OC)c1OC` (centres undefined), the TGI is above 100 µM in the assay with SF-295 CNS; above 100 µM in the assay on UACC-257 melanoma; 41.3 µM with MDA-MB-231 breast; 83.6 µM in the assay with HOP-92 NSCLC; 83.2 µM in the assay on HS 578T breast; 38.4 µM in the assay with EKVX NSCLC. Also, the values for the TGI with OVCAR-5 ovarian and in the assay with SN12C renal were 96.2 µM and 60.3 µM, respectively.

As to `COc1ccc(-c2csc(=Nc3ccccc3)n2CCCN(C)C)cc1`, the TGI in the assay on SF-295 CNS is 27.6 µM; in the assay with UACC-257 melanoma, 37.5 µM; with MDA-MB-231 breast, above 100 µM; with HOP-92 NSCLC it was above 100 µM; in the assay with NCI-H226 lung, 38.1 µM; in the assay on OVCAR-5 ovarian, 30.4 µM. The TGI in the assay on RPMI-8226 leukemia is 60.8 µM; in the assay on SN12C renal, above 100 µM.

`NC(CSCc1ccc(I)cc1)C(=O)O` (centres undefined): the TGI with SF-295 CNS, in the assay with UACC-257 melanoma, in the assay on MDA-MB-231 breast, with HOP-92 NSCLC, in the assay with HS 578T breast and with NCI-H226 lung was above 100 µM in each case. Also, the TGI in the assay on EKVX NSCLC, in the assay on OVCAR-5 ovarian, in the assay with RPMI-8226 leukemia and with SN12C renal was above 100 µM in each case.

In the case of `c1ccc(N2N=C(c3cccc(Nc4ccncc4)c3)CC2c2ccc3c(c2)OCO3)cc1` (centres undefined), the GI50 with SF-295 CNS was 1.87 µM; in the assay with UACC-257 melanoma, 2 µM; in the assay with HOP-92 NSCLC, 1.1 µM; in the assay on HS 578T breast, 1.55 µM; in the assay with NCI-H226 lung it was 2.07 µM; with EKVX NSCLC it was 2.66 µM. Also, the GI50 in the assay with OVCAR-5 ovarian is 2.06 µM; in the assay on SN12C renal, 1.71 µM. Moreover, the TGI with SF-295 CNS was 3.51 µM; in the assay with UACC-257 melanoma it was 4.09 µM; in the assay on HOP-92 NSCLC, 2.47 µM; with HS 578T breast, 3.42 µM; in the assay on NCI-H226 lung it was 5.05 µM; in the assay with EKVX NSCLC, 11 µM. The TGI in the assay on OVCAR-5 ovarian is 4.85 µM; in the assay on SN12C renal, 3.25 µM.

`Cc1nc2c(c(=O)[nH]1)S/C(=C(/C#N)c1nc3ccccc3[nH]1)N2c1ccccc1`: the TGI in the assay on SF-295 CNS, with UACC-257 melanoma, with HOP-92 NSCLC, with EKVX NSCLC, in the assay with OVCAR-5 ovarian and in the assay on RPMI-8226 leukemia was above 100 µM each time. This compound showed a TGI in the assay on SN12C renal above 100 µM.

`Cc1c(C)c(C)c(CC2(C)CSC2)c(CC2(C)CSC2)c1C`: the TGI with SF-295 CNS, in the assay on UACC-257 melanoma, with MDA-MB-231 breast, in the assay with HOP-92 NSCLC, in the assay on HS 578T breast and in the assay on NCI-H226 lung was above 100 µM throughout. Moreover, the TGI in the assay on EKVX NSCLC, with OVCAR-5 ovarian, in the assay on RPMI-8226 leukemia and in the assay with SN12C renal was above 100 µM in each case.

Consider `CC[C@@H]1ON(C)[C@H]2CN(C)C(=O)[C@@H]12`, for which the TGI in the assay with SF-295 CNS, in the assay on UACC-257 melanoma, with MDA-MB-231 breast, with HOP-92 NSCLC, with HS 578T breast and with NCI-H226 lung was above 100 µM each time. The TGI in the assay on OVCAR-5 ovarian, in the assay with RPMI-8226 leukemia and in the assay on SN12C renal was above 100 µM in each case.

Regarding `CCN1CCCC(C#N)(c2ccccc2)CC1` (centres undefined), the TGI in the assay with SF-295 CNS, in the assay with UACC-257 melanoma, with HOP-92 NSCLC, in the assay with HS 578T breast, in the assay on EKVX NSCLC and in the assay on OVCAR-5 ovarian was above 100 µM throughout. In addition, in the assay on RPMI-8226 leukemia, the TGI is above 100 µM.

Turning to `CN(C)CCCC1c2ccccc2Oc2ccc(C(F)(F)F)cc21` (centres undefined), the TGI with SF-295 CNS stood at 31.6 µM; in the assay with UACC-257 melanoma it was 26.5 µM; with MDA-MB-231 breast, 26 µM; in the assay with HOP-92 NSCLC, 25.2 µM; with HS 578T breast, 31.8 µM; in the assay on NCI-H226 lung it was 23.1 µM. Besides, the TGI with EKVX NSCLC turned out to be 31.3 µM; in the assay with OVCAR-5 ovarian, 29.2 µM; in the assay on RPMI-8226 leukemia it was 25.3 µM; in the assay with SN12C renal it was 28.2 µM.

For the compound `COc1ccc2c(c1O)-c1cc(O)cc3c1[C@@H](C2)N(C)CC3`, the TGI in the assay with SF-295 CNS worked out at 145 µM; in the assay on UACC-257 melanoma, 138 µM; in the assay with HOP-92 NSCLC, 73.6 µM; with NCI-H226 lung it was 108 µM; in the assay on EKVX NSCLC, 187 µM; in the assay on OVCAR-5 ovarian, 63.3 µM. In addition, the values for the TGI in the assay on RPMI-8226 leukemia and in the assay on SN12C renal were 286 µM and 183 µM, respectively.

On to `NC(=S)N/N=C/c1nccc2ccccc12`, for which the TGI with SF-295 CNS is 2.03 µM; in the assay on HOP-92 NSCLC it was above 100 µM; in the assay with OVCAR-5 ovarian it was above 100 µM; in the assay on RPMI-8226 leukemia, above 100 µM; with SN12C renal, above 100 µM.

Regarding `COc1cc([C@@H]2c3cc4c(c(O)c3C[C@H]3COC(=O)[C@@H]32)OCO4)cc(OC)c1OC`, the GI50 with SF-295 CNS is 0.109 µM; in the assay with UACC-257 melanoma, above 100 µM; in the assay on MDA-MB-231 breast, 0.392 µM; in the assay on HOP-92 NSCLC it was 8.17 µM; with NCI-H226 lung it was 0.364 µM; in the assay with OVCAR-5 ovarian, 0.725 µM. The GI50 with SN12C renal was 0.581 µM. For the same compound, the TGI with MDA-MB-231 breast is above 100 µM; in the assay on NCI-H226 lung, 150 µM and 19.6 µM; in the assay on OVCAR-5 ovarian, 150 µM and > 241 µM and > 100 µM; with RPMI-8226 leukemia, 27.4 µM and > 241 µM.

Values taken from PubChem BioAssay (NCI).
